The text below walks through data of patent US9012521B2, “Pyrroloquinoline quinone gel” (Mitsubishi Gas Chemical Company, Inc., priority 2010, dated 2015).

Data set [1] is classed as physicochemical. The text has this: When mixing the salt of pyrroloquinoline quinone with the dispersion medium, the salt of pyrroloquinoline quinone may be added to the dispersion medium, the dispersion medium may be added to the salt of pyrroloquinoline quinone, or the salt of pyrroloquinoline quinone and the disperse medium may be added into separate vessels. Preferably, the salt of pyrroloquinoline quinone can be added to the dispersion medium. Preferably, the concentration of the salt of pyrroloquinoline quinone here is the same or higher than the solubility. The “solubility” as used herein refers to the extent to which a solute dissolves in a solvent, and can be expressed by the concentration of the solute in the saturated solution. The solubility of the salt of pyrroloquinoline quinone can be suitably determined by the temperature of the mixture.

Data set [2] is described as follows: Dissolution test in water, monitored by absorption at 450 nm. The settings on record: 1.3 mg PQQ powder in 2 mL water, room temperature; time to complete dissolution calculated from gradient of concentration change. It is filed as physicochemical. The procedure: In Examples and Comparative Examples, UV measurements were performed using a HITACHI U-2000 Spectrophotometer. […] To an acrylic cell for UV measurement, 1.3 mg of the PQQ powder was added, followed by the addition of 2 mL of water. […] The dissolution in water was monitored by absorption at 450 nm at room temperature. Absorbance measurement was performed for one hour, and the duration until the complete dissolution was calculated from the gradient of change in the concentration.

Data set [3] is described as follows: Specific surface area by the BET method with N2 adsorption. The format is physicochemical. The settings on record: pre-treatment drying at 150° C. for 20 hours. The procedure: Using an Autosorb-6B manufactured by Quantachrome Instruments as the measurement apparatus, the specific surface area was determined by the BET method with N2 adsorption.

`O=C(O)c1cc(C(=O)O)c2c(n1)C(=O)C(=O)c1cc(C(=O)O)[nH]c1-2` [Comparative Example 1, Pyrroloquinoline quinone disodium]: the solubility in water in data set [1] is reported as 0.299 g per 100 g of water. Besides, the Dissolution time in data set [2] is 10 min. Also, the specific surface area in data set [3] was determined as 2.9 m^2/g.
